Measurements as given in patent US20260184807A1, “Methods for Treating Rheumatoid Arthritis Using a Syndecan-1 Inhibitor or Syntenin-1 Inhibitor” (The United States Government as represented by the …, priority 2022, published 2026).

Legend:
RA FLS [1] = settings: cited from earlier work
MΦs = settings: classical and Syntenin-1-differentiated MΦs; cited from earlier work
RA FLS [2] = settings: IL-6/IFNγ signaling; cited from earlier work
RA MΦs = test: Syntenin-1 stimulation and inhibition in RA MΦs (qRT-PCR, ELISA); format: cell-based, human; settings: Syntenin-1 1000 ng/mL, 6 h or 24 h vs PBS, FIGS. 2B-2E
Experimental: FIGS. 2A-K show ligation of Syntenin-1 to SDC-1 expands RA MΦ inflammatory profile independent of IL 5R or PDZ1 function. […] Transcription of IRFs (FIG. 2B) and the inflammatory monokines (FIG. 2C) was assessed by qRT-PCR (n=3-10), and protein levels of IL-6 (FIG. 2D) or TNFα (FIG. 2E) were determined in the conditioned media by ELISA (n=10). […] Data are presented as mean±SEM: significant differences were determined by the Mann-Whitney test, two-way-ANOVA, or one-way ANOVA. *p<0.05, **p<0.01, ***p<0.001, ****p<0.0001. ANOVA, analysis of variance.
(B, C) RA MΦs were treated with PBS (ctrl) or Syntenin-1 (1000 ng/mL) for 6 hours and transcription levels of HIF1α (n=10) (FIG. 3B). GLUT1, RAPTOR, HK2, PFK2, PDK1, PKM2 (FIG. 3C) were quantified by qRT-PCR (n=6). […] FIGS. 3H, 3I) after 24 hours impact of treatment was determined on CD14+CD86+ GLUT1+ frequency by flow cytometry (n=4-5). […] Data are presented as mean±SEM; significant differences were determined by Mann-Whitney test, Student's t-test, two-way-ANOVA, or one-way ANOVA. *p<0.05, **p<0.01, ***p<0.001, ****p<0.0001. ANOVA, analysis of variance.
Quantitative Real-Time PCR. […] Transcription to cDNA and subsequent quantitative real-time PCR analysis was performed using the High-Capacity cDNA Reverse Transcription Kit (Applied Biosystems) and TaqMan Gene Expression Master Mix (Applied Biosystems). […]

O=CC[C@@H](O)[C@H](O)[C@H](O)CO [2-DG, 2-deoxy-D-glucose]
GLUT1 and HK2 transcriptional upregulation (RA FLS [1]; LPS/IFNγ reprogrammed RA FLS): suppressed | upregulation of IRF1/5/7 along with IL-6, IL-8, and CCL2 (RA FLS [1]; RA FLS differentiated by LPS/IFNγ): reversed | citrate accumulation (RA FLS [1]; RA FLS reconfigured by LPS/IFNγ): resolved | metabolic activity expanded via GLUT1, LDHA, and lactate (MΦs): impaired

C[C@@H]1CCN(C(=O)CC#N)C[C@@H]1N(C)c1ncnc2[nH]ccc12 [Tofacitinib]
RA FLS migration (RA FLS [2]): impaired

B1: Syntenin-1: Syntenin-1 protein (1000 ng/ml, NKMAX Co.) used as stimulus (protein, UniProt O00560 2-298, looked up)
Syntenin-1: SLYPSLEDLKVDKVIQAQTAFSANPANPAILSEASAPIPHDGNLYPRLYPELSQYMGLSLNEEEIRANVAVVSGAPLQGQLVARPSSINYMVAPVTGNDVGIRRAEIKQGIREVILCKDQDGKIGLRLKSIDNGIFVQLVQANSPASLVGLRFGDQVLQINGENCAGWSSDKAHKVLKQAFGEKITMTIRDRPFERTITMHKDSTGHVGFIFKNGKITSIVKDSSAARNGLLTEHNICEINGQNVIGLKDSQIADILSTSGTVVTITIMPAFIFEHIIKRMAPSIMKSLMDHTIPEV
expansion of monokines IL-1, TNF-α, IL-6, IL-8 and CCL2 (RA MΦs): > 7 fold
